Target: T1, SIRT1 (Homo sapiens, UniProt Q96EB6)
T1 sequence (Q96EB6 1-747): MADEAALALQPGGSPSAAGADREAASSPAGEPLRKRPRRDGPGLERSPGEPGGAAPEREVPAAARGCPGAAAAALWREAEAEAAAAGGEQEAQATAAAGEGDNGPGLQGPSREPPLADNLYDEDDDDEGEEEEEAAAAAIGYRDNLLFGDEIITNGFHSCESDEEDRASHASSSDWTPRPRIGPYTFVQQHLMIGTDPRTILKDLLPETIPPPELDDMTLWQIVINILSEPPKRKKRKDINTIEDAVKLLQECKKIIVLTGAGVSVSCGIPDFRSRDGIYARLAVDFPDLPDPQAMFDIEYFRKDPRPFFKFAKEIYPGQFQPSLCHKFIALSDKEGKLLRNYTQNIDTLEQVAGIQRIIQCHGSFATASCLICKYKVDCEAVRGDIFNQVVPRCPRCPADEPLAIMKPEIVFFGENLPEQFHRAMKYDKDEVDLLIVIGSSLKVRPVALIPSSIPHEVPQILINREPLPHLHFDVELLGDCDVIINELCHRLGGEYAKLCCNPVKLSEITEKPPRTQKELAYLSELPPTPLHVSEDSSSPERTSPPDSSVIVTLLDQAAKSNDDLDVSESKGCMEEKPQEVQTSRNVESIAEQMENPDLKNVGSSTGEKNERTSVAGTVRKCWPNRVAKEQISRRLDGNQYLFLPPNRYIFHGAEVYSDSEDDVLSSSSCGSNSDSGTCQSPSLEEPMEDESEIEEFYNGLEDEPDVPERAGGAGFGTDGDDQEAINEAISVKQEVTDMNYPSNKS
Experiment: mass spectrometry based SIRT1 deacetylation assay (activation)
Format: biochemical
Conditions: 0.5 μM peptide substrate, 120 μM βNAD+, 10 nM SIRT1, 25 min at 25° C.; for EC1.5 (concentration of test compound that results in 150% activation of SIRT1): NA = not active in the assay; for Emax: read-out: % FOLD ACT. (percent maximum fold activation of SIRT1)
Description: A mass spectrometry based assay was used to identify modulators of SIRT1 activity. The mass spectrometry based assay utilizes a peptide having 20 amino acid residues as follows: Ac-EE-K(biotin)-GQSTSSHSK(Ac)NleSTEG-K(5TMR)-EE-NH2 (SEQ ID NO: 1) wherein K(Ac) is an acetylated lysine residue and Nle is a norleucine. The peptide is labeled with the fluorophore 5TMR (excitation 540 nm/emission 580 nm) at the C-terminus. The sequence of the peptide substrate is based on p53 with several modifications. In addition, the methionine residue naturally present in the sequence was replaced with the norleucine because the methionine may be susceptible to oxidation during synthesis and purification.
Test compounds may be added to the reaction as described above. […] After the 25 minute incubation with SIRT1, 10 μL of 10% formic acid is added to stop the reaction. Reactions are sealed and frozen for later mass spec analysis. Determination of the mass of the substrate peptide allows for precise determination of the degree of acetylation (i.e. starting material) as compared to deacetylated peptide (product).
A control for inhibition of sirtuin activity is conducted by adding 1 μL of 500 mM nicotinamide as a negative control at the start of the reaction (e.g., permits determination of maximum sirtuin inhibition). A control for activation of sirtuin activity is conducted using 10 nM of sirtuin protein, with 1 μL of DMSO in place of compound, to determine the amount of deacetylation of the substrate at a given timepoint within the linear range of the assay. This timepoint is the same as that used for test compounds and, within the linear range, the endpoint represents a change in velocity.
For the above assay, SIRT1 protein was expressed and purified as follows. […] The protein was expressed by induction with 1 mM IPTG as an N-terminal His-tag fusion protein at 18° C. overnight and harvested at 30,000×g. Cells were lysed with lysozyme in lysis buffer (50 mM Tris-HCl, 2 mM Tris[2-carboxyethyl]phosphine (TCEP), 10 μM ZnCl2, 200 mM NaCl) and further treated with sonication for 10 min for complete lysis. The protein was purified over a Ni-NTA column (Amersham) and fractions containing pure protein were pooled, concentrated and run over a sizing column (Sephadex S200 26/60 global). The peak containing soluble protein was collected and run on an Ion-exchange column (MonoQ). Gradient elution (200 mM-500 mM NaCl) yielded pure protein. This protein was concentrated and dialyzed against dialysis buffer (20 mM Tris-HCl, 2 mM TCEP) overnight. The protein was aliquoted and frozen at −80° C. until further use.
Sirtuin modulating compounds that activated SIRT1 were identified using the assay described above and are shown below in Table 3. The EC1.5 values represent the concentration of test compounds that result in 150% activation of SIRT1. NT means that the compound was not tested using the indicated assay. NA means that the compound was not active in the indicated assay.

SMILES | EC1.5 (concentration of test compound that results in 150% activation of SIRT1) [NM] | Emax [%]
NC1CCN(Cc2cnc3sc(-c4ccccc4NC(=O)c4cccc(-c5ccncc5)c4)nc3c2)CC1 [Compound 12] | 249 | 550
O=C(Nc1ccccc1-c1nc2cc(CN3CCOCC3)cnc2s1)c1ccnc(-c2ccccc2)n1 [Compound 72] |  | 100
O=C(Nc1ccccc1-c1nc2cc(CN3CCOCC3)cnc2s1)c1cncc(-c2ccccc2F)c1 [Compound 50] | 533 | 207
COCCN1CCN(Cc2cnc3sc(-c4ccccc4NC(=O)c4cccc(-c5ccncc5)c4)nc3c2)CC1 [Compound 59] | 492 | 279
O=C(Nc1ccccc1-c1nc2cc(CN[C@H]3CCNC3)cnc2s1)c1cccc(-c2ccccn2)c1 [Compound 37] | 507 | 422
Cc1nc(-c2cccnc2)sc1C(=O)Nc1ccccc1-c1nc2cc(CN3CCC(N)CC3)cnc2s1 [Compound 78] | 565 | 297
O=C(Nc1ccccc1-c1nc2cc(CN3CCNCC3)cnc2s1)c1cccc(-c2cccnc2)c1 [Compound 9] | 416 | 392
C[C@@H]1CN(Cc2cnc3sc(-c4ccccc4NC(=O)c4cccc(-c5ccccc5)c4)nc3c2)C[C@H](C)N1 [Compound 24] | 94 | 299
O=C(Nc1ccccc1-c1nc2cc(CN3CCOCC3)cnc2s1)c1nc2ccccc2s1 [Compound 93] | 510 | 236
Cc1nc(-c2cccnc2)sc1C(=O)Nc1ccccc1-c1nc2cc(CN3C[C@@H](C)N[C@@H](C)C3)cnc2s1 [Compound 81] |  | 131
O=C(Nc1ccccc1-c1nc2cc(CN3CCOCC3)cnc2s1)c1cccc(-c2nnn[nH]2)c1 [Compound 77] | 3920 | 204
COCCN1CCN(Cc2cnc3sc(-c4ccccc4NC(=O)c4cccc(-c5ncccn5)c4)nc3c2)CC1 [Compound 42] | 656 | 212
COCCN1CCN(Cc2cnc3sc(-c4ccccc4NC(=O)c4cncc(-c5ccccc5)c4)nc3c2)CC1 [Compound 35] | 554 | 234

The remaining lines, values ahead:

EC1.5 (concentration of test compound that results in 150% activation of SIRT1) [NM] | Emax [%] | SMILES
1610 | 427 | O=C(Nc1ccccc1-c1nc2cc(CN3CCOCC3)cnc2s1)c1cn2ccccc2n1 [Compound 111]
820 | > 500 | O=C(Nc1ccccc1-c1nc2cc(CN[C@H]3CCNC3)cnc2s1)c1ccc2ccccc2n1 [Compound 120]
90 | 500 | COCCN1CCN(Cc2cnc3sc(-c4ccccc4NC(=O)c4cccc(-c5ccccc5Cl)n4)nc3c2)CC1 [Compound 133]
86 | 500 | COCCN1CCN(Cc2cnc3sc(-c4ccccc4NC(=O)c4cccc(-c5cc(F)ccc5F)n4)nc3c2)CC1 [Compound 145]
448 | 461 | COCCN1CCN(Cc2cnc3sc(-c4ccccc4NC(=O)c4cccc(-c5ccc(C(F)(F)F)cc5)n4)nc3c2)CC1 [Compound 136]
759 | 274 | Cc1cc(C(=O)Nc2ccccc2-c2nc3cc(CN4CCCC4)cnc3s2)nc(-c2ccccc2)n1 [Compound 135]
 | 133 | O=C(Nc1ccccc1-c1nc2cc(CN3CCC(F)(F)C3)cnc2s1)c1ccc2ccccc2n1 [Compound 101]
230 | 273 | O=C1CN(Cc2cnc3sc(-c4ccccc4NC(=O)c4ccc5ccccc5n4)nc3c2)CCN1 [Compound 103]

Reference: patent US8268862B2, “Sirtuin modulating compounds” (Sirtris Pharmaceuticals, Inc., priority 2007, dated 2012)
